According to PMC10808720 (Frontiers in Pharmacology, 2024):
“Also recorded” adds a separate entry of the source. Like-named read-outs stand apart in the source and are kept apart here.

Experiments:
HAdV5-GFP = experiment: microbe, parasite or virus in culture; type: cell-based, human adenovirus (HAdV5); settings: for Selectivity index: CC50 (A549) vs IC50 plaque assay (HAdV5)
Protocol: Compounds were tested using low MOI infections (0.06 vp/cell), initially at concentrations of 10 μM and subsequently in a dose-response assay ranging from 10 μM to 2.44 nM in a plaque assay. Briefly, 293β5 cells were seeded in 6-well plates at a density of 1 × 10^6 cells per well in duplicate for each condition. When the cells reached 80%–90% confluency, they were infected with HAdV5-GFP and rocked for 2 h at 37°C. After the incubation, the inoculum was removed and the cells were washed once with PBS. Cells were then carefully overlaid with equal parts of 4 mL/well 1.6% ([…]) Difco Agar Noble (Becton, Dickinson & Co., Sparks, MD, USA) and 2× Eagle’s Minimum Essential Medium (EMEM; BioWhittaker) supplemented with 2×penicillin/streptomycin, 2× L-glutamine, and 10% FBS. The mixture also contained the compounds in the concentration ranges described above. Following incubation for 7 days at 37°C, plates were scanned with a Typhoon FLA 9000 imager (GE Healthcare Life Sciences) and the formed plaques were quantified with ImageJ ([Schneider et al., 2012]). Plaque counting was performed to calculate the 50% inhibitory concentration (IC50) of each compound using the statistical software GraphPad Prism 6.

[1] = Cytotoxicity assay (AlamarBlue); type: cell-based, Human; settings: human, A549 cells; for CC50: 48 h
Protocol: The cytotoxicity of the molecules was analyzed using the commercial kit AlamarBlue® (Invitrogen, Ref. DAL1025) according to the manufacturer’s instructions. Briefly, A549 cells were seeded at a density of 5 × 10^3 cells per well in 96-well plates, and decreasing serial dilutions of each molecule were diluted in 100 μL of DMEM starting at 200 μM. The cells were then incubated at 37°C for 48 h following the manufacturer’s protocol. The cytotoxic concentration 50% (CC50) value was obtained using the statistical software GraphPad Prism 6. The assay was performed in duplicate.

wild-type HAdV5 [2] = experiment: HAdV yield reduction (burst) assay, TCID50 end-point dilution; type: cell-based, human adenovirus (HAdV5); settings: 10-fold IC50 concentration, TCID50/ml compound vs. DMSO, A549 cells, 48 h, MOI 100 vp/cell
Protocol: A549 cells (1.5 × 10^5 cells/well in a 24-well plate) were incubated 24 h in 500 μL of complete DMEM and they were infected with wild-type HAdV5 (MOI 100 vp/cell) when more than 90% of confluency was observed. Infected cells were incubated for 48 h at 37°C in 500 μL of either complete DMEM containing 10-fold IC50 concentration of compounds obtained in the plaque assay or the same volume of DMSO (positive control). After 48 h, the cells were harvested and subjected to three rounds of freeze/thaw. Serial dilutions of the clarified lysates were titrated against A549 cells (3 × 10^4 cells/well in a 96-well plate) and TCID50 values were calculated using an end-point dilution method ([Reed and Muench, 1938]).

p53/MDM2 complex = type: cell-based, Human; settings: HAdV5-infected A549 cells, 24 h; for concentration of p53/MDM2 complexes, high vs low cell density: 10-fold IC50
Protocol: A549 cells were seeded at a density of 1.5 × 10^5 cells per well in a 24-well plate at a high density and 3.75 × 10^4 cells per well at a low density. […] The culture medium was then aspirated and washed with 1X with cold PBS. Later, 200 μL RIPA Lysis Buffer (1% v/v NP-40, 20 mM Tris-HCL pH 7.4, 5 mM Sodium Pyrophosphate, 5 mM EDTA) with freshly added proteinase inhibitor cocktail (Thermo Fisher Scientific) was added to each well and swirled to distribute it evenly. Cells were then scraped and collected to incubate them for 30 min on ice and finally centrifuged at 13,000 × g for 5 min at 4°C. […] This assay was performed in triplicate.

wild-type HAdV5 [3] = experiment: HAdV DNA quantification by qPCR; type: cell-based, human adenovirus (HAdV5); settings: 10-fold IC50; A549; 24 h; vs DMSO control
Protocol: For DNA quantification, A549 cells (1.5 × 10^5 cells/well in a 24-well plate) were incubated for 24 h in 500 μL of complete DMEM and were infected with wild-type HAdV5 (MOI 100 vp/cell) after observing more than 90% of confluency. Infected cells were incubated for 24 h at 37°C in 500 μL of either complete DMEM containing 10-fold IC50 concentration of the compounds obtained in the plaque assay or the same volume of DMSO (positive control). All samples were prepared in duplicate. After 24 h of incubation at 37°C, DNA was purified from the cell lysate with the E.Z.N.A.® Tissue DNA Kit (Omega Bio-tek, Norcross, GA) following the manufacturer’s instructions. PCR conditions, primers, and probes were as described by [Henke-Gendo et al. (2012)]. Human glyceraldehyde-3-phosphate dehydrogenase (GAPDH) gene was used as an internal control. GAPDH oligonucleotide sequences and conditions were as previously described by [Rivera et al. (2004)].
For quantification, gene fragments from hexons, and GAPDH were cloned into the pGEM-T Easy vector (Promega) and known concentrations of the template were used to generate a standard curve in parallel for each experiment, as previously reported ([Sanchez-Cespedes et al., 2016]). All assays were performed in thermal cycler LightCycler® 96 System (Roche).

HCMV = experiment: Impact on HCMV replication (qPCR of HCMV DNA in HFF); type: cell-based, human cytomegalovirus; settings: 2-fold IC50 (HAdV plaque assay), 72 h
Protocol: To test the anti-HCMV activity of these rotenolone-related compounds, human foreskin fibroblasts (HFF; ATCC, Manassas, VA) were seeded in a 24-well plate (8.3 × 10^4 cells/well), infected with HCMV (MOI 0.05 vp/cell), and incubated in complete DMEM in the presence of either 2-fold IC50 concentration of each compound obtained in the plaque assay against HAdV or the same volume of DMSO (positive control) in duplicate. The cells were incubated for 72 h at 37°C and 5% CO2 and HCMV DNA was purified from the cell lysate using E.Z.N.A Tissue DNA Kit (Omega Biotek, Norcross, GA, USA) following the manufacturer’s instructions. The qPCR primers, conditions, and protocols were the same as previously reported ([Mazzotta et al., 2020b]).

HAdV5-RFP = experiment: Anti-HAdV activity after knockdown of RPS14 by siRNA (RFP expression); type: cell-based, human adenovirus (HAdV5); settings: RPS14 knockdown 293β5 cells; 10-fold IC50; 48 h
Protocol: An siRNA approach was used to evaluate the antiviral activity of these molecules in the absence of RPS14. According to the supplier’s protocol (Effectene Transfection Reagent, QIAGEN, Valencia, CA), 293β5 cells at 1.5 × 10^4 cells/well were seeded in a clear bottom 96-well microplate a day before transfection. On the day of transfection, 0.1 µg siRNA (MISSION esiRNA RPS14, SigmaAldrich) was diluted in EC buffer up to 30 µL/well and 0.8 µL/well of the enhancer was added and the mix was incubated for 5 min. Effectene transfection reagent was added and the mix was incubated for 10 min to allow transfection complex formation. The cell layers were washed with 1x PBS and transfection complexes were poured over them. After 6 h of incubation, the transfection complexes were removed and the cells were infected with HAdV5-RFP (MOI 2,000 viral particles/cell) in the presence of a 10-fold IC50 concentration of the compounds obtained in the plaque assay or the same volume of DMSO. Standard infection was induced in the presence of the same concentrations of the compounds (performed in triplicate), and a control without siRNA. Cells, viruses, and compounds were incubated for 48 h at 37°C and 5% CO2. Infection, as measured by HAdV5-mediated RFP expression, was analyzed using a Typhoon 9410 imager (GE Healthcare Life Sciences) and quantified using ImageQuantTL (GE Healthcare Life Sciences).

[4] = Human adenovirus sp., 168 h, read-out: IC50 plaque assay

Compound | Selectivity index (HAdV5-GFP) | IC50 (HAdV5-GFP; [4]) [nM] | CC50 [1] [µM] | Virus Yield Fold-reduction (wild-type HAdV5 [2]) [fold] | Virus Yield Fold-reduction (wild-type HAdV5 [2]; listed as deguelin) [fold] | concentration of p53/MDM2 complexes, high vs low cell density (p53/MDM2 complex) | HAdV DNA copy number (de novo synthesis) (wild-type HAdV5 [3]) | inhibition of HCMV replication (HCMV) | inhibition at 10 µM (HAdV5-GFP; Human adenovirus sp., read-out: inhibition of plaque formation) [%] | increase of HCMV replication compared with the control treated with DMSO (HCMV) | CC50 at 48 h [1] [µM] | IC50 (HAdV5-GFP; Human adenovirus sp.) [nM] | concentration of p53/MDM2 complexes (p53/MDM2 complex) | HAdV-mediated RFP expression when no RPS14 was available (HAdV5-RFP)
COc1cc2c(cc1OC)[C@@H]1C(=O)c3ccc4c(c3O[C@@H]1CO2)C=CC(C)(C)O4 [Deguelin, (7aS,13aS)-13,13a-Dihydro-9,10-dimethoxy-3,3-dimethyl-3H-bis ([Mennechet et al., 2019])benzopyrano[3,4-b:6′,5′-e]pyran-7-(7aH)-one] | 2,429.3 | 40 ± 10 | 97.2 ± 0.1 | 2.7E+02 ± 19.4 | 270 | non among emetine, rotenone, deguelin and tephrosin alter the concentrations | significant decrease | 50% | – | – | – | – | – | –
CC1(C)C=Cc2c(ccc3c2O[C@@H]2COc4cc5c(cc4[C@@H]2C3=O)OCO5)O1 [Millettone] | 23.8 | 4600 ± 540 | 109 ± 2.2 | – | – | – | – | did not inhibit | > 98 | more than 10 times | – | – | – | –
COc1cc2c(cc1OC)[C@]1(O)C(=O)c3ccc4c(c3O[C@@H]1CO2)C=CC(C)(C)O4 [Tephrosin, hydroxydeguelin] | 538.9 | 70 ± 30 | – | 2.7E+03 ± 987.3 | – | non among emetine, rotenone, deguelin and tephrosin alter the concentrations | – | 83.4% | – | – | 37.7 ± 0.6 | – | – | –
CC[C@H]1CN2CCc3cc(OC)c(OC)cc3[C@@H]2C[C@@H]1C[C@H]1NCCc2cc(OC)c(OC)cc21 [emetine, reference compound] | – | – | 6.17 ± 0.04 | – | – | no differences based on the cell density; also recorded: non among emetine, rotenone, deguelin and tephrosin alter the concentrations | – | – | – | – | – | 85 ± 19 | dramatically reduced | reduced
